# Experimental data reported in patent US20050026958A1, “Methods of therapeutic treatment using amounts of retinoid components” (Allergan, Inc., priority 2003, published 2005).
# Legend:
# sebum secretion [1] = conditions: published reports (Geiger); cited from earlier work
# RXR retinoid receptors = conditions: cited from earlier work
# sebum secretion [2] = experiment: Sebum output by Sebutape patches in the Example 7 study; type: in vivo, human; conditions: oral tazarotene 0.75 to 6 mg once daily, maximum of 86 patients
# Method: (§1) Sebum output is assessed every 4 weeks at selected centers using the Sebutape® patches, sold by Cuderm Corporation. Urinalysis, chemistry, and hematology values are monitored. Bone formation and resorption assessments (serum bone alkaline phosphatase and serum amino terminal telopeptides, respectively) at selected centers are monitored.
# [3] = tested on: patients with severe nodulocystic acne; experiment: Multicenter double-blind randomized placebo-controlled study of oral tazarotene in severe nodulocystic acne (Example 7); type: in vivo, human
# Source text: A multicenter, double-blind, randomized, placebo-controlled parallel-group study is undertaken to determine the efficacy of orally administered tazarotene in treating severe nodulocystic acne.
# In addition, washout periods for other medications for this study are: 1 week for vitamin A supplements >5000 IU; 2 weeks for topical anti-acne medications (e.g., retinoids, azelaic acid, benzoyl peroxide); 2 weeks for topical or systemic antibiotic therapy that may alter the course of acne; and 6 months for systemic retinoids.
# Patients are randomized to receive placebo or oral tazarotene (0.75, 1.5, 3, or 6 mg), in a 1:1:1:1:1 ratio once daily for 24 weeks. After this, the patients are followed without treatment for an additional 12 weeks. Patients discontinuing from the treatment period due to adverse effects or lack of efficacy are eligible for entry into the post-treatment phase.
# In the study, overall acne severity is rated as: none (no inflammatory acne lesions); mild (few to several papules or pustules, no nodulocystic lesions); moderate (several to many papules or pustules, few to several nodulocystic lesions); and severe (numerous or extensive papules or pustules, many, for example, at least about 5 or at least about 10, nodulocystic lesions).
# Treatment success is defined as at least moderate (about 50%) improvement on the following 7-point global response scale: • 0=completely cleared • 1=almost cleared (about 90% improvement) • 2=marked response (about 75% improvement) • 3=moderate response (about 50% improvement) • 4=slight response (about 25% improvement) • 5=condition unchanged • 6=condition worsened
# In this study, facial nodulocystic lesion count includes lesions greater than 5 mm in size. Facial papular/pustular lesion count includes lesions less than or equal to 5 mm in size. Facial non-inflammatory lesion count includes open and closed comedones.
# as §1
# Bone mineral density of spine and proximal femur at selected centers is monitored. Ligament calcification or osteophyte formation (lateral X-ray of the cervical and thoracic spine, and ankle calcaneous) is monitored. Epiphyseal growth plate closure (internal oblique X-ray of the ankle in patients less than or equal to 21 years old) is monitored.
# patients = experiment: Two placebo-controlled 24-week safety studies of oral tazarotene plus 16- to 24-week dose-response evaluations (Example 3); type: in vivo, human; conditions: 4.5 mg orally once daily vs placebo
# Method: Two multicenter, double-blind, randomized, placebo-controlled 24-week studies of identical design are conducted to evaluate the safety of oral tazarotene. In addition, 16- to 24-week dose-response evaluations are performed.
# In the two safety trials, the incidence of adverse side effects with a 4.5 mg dose administered orally once daily is compared to the incidence of the same side effects with a placebo. […] The majority of these were mild in severity and typical of adverse effects associated with oral retinoids.
# patients (psoriasis) = experiment: Adverse event monitoring in Phase 3 studies of orally administered tazarotene for psoriasis (Table 1); type: in vivo, human; conditions: Taz 4.5 mg, combined Studies 1 and 2 (N = 348)
# Method: A series of Phase 3 studies are conducted on orally administered tazarotene for the treatment of psoriasis. Adverse events (side effects) are monitored. In addition, published data for acitretin's side effects are also considered.
# [4] = tested on: patients having nodulocystic acne; experiment: Two placebo-controlled dose-ranging safety studies of oral tazarotene in nodulocystic acne (Example 4); type: in vivo, human; conditions: for joint disorder during treatment period: placebo 0%; for arthralgia during treatment period: placebo 6%; for myalgia during treatment period: placebo 9%; for asthenia during treatment period: placebo 13%; for dry skin during treatment period: placebo 19%; for headache during treatment period: placebo 28%; for cheilitis during treatment period: placebo 31%; for emotional lability (all cases mild): placebo 4%
# Method: Two placebo-controlled dose-ranging studies are conducted to evaluate the safety of oral tazarotene in patients having nodulocystic acne. In the first study, patients receive orally administered tazarotene at daily doses of 0.4 mg to 2.8 mg in 96 (71+25) patients (12 weeks treatment plus 12 weeks post-treatment). In the second study, daily doses of 0.75 mg to 6 mg tazarotene are administered to 181 patients (24 weeks treatment plus 12 weeks post-treatment).
# patients (acne) = experiment: Adverse event monitoring in studies of orally administered tazarotene for acne (Table 2); type: in vivo, human; conditions: oral tazarotene for acne, combined Studies 1 and 2 (N = 223)
# Method: Studies are conducted on orally administered tazarotene for the treatment of acne. Adverse events (side effects) are monitored.
# [5] = Food effect (high-fat meal vs fast) on pharmacokinetics of tazarotenic acid after 6.3 mg oral tazarotene; type: in vivo, human; conditions: healthy subjects
# [6] = oral tazarotene 0.4 to 6 mg daily
smiles,measurement,setting,value
"CC1=C(/C=C/C(C)=C/C=C/C(C)=C\C(=O)O)C(C)(C)CCC1 [Isotretinoin, isotretinoin]",inhibitory effect on the rate of sebum secretion,sebum secretion [1],about 90%
CC1(C)CC[S+]([O-])c2ccc(C#Cc3ccc(C(=O)O)cn3)cc21 (centres unmarked) [sulfoxide derivative],activation of RXR retinoid receptors,RXR retinoid receptors,does not activate
CCOC(=O)c1ccc(C#Cc2ccc3c(c2)C(C)(C)CCS3)nc1 [tazarotene],effect on sebum secretion relative to placebo (Sebutape method),sebum secretion [2],does not substantially reduce sebum secretion relative to placebo
same,patients withdrawing due to adverse events in treatment period,"[3]; 0.75 mg group (2/35), placebo 0%",6%
same,patients withdrawing due to adverse events in treatment period,[3]; 1.5 mg group (0/37),0%
same,incidence of treatment success (≧50% global improvement) vs placebo,"[3]; 3 mg and 6 mg, week 24 and throughout post-treatment phase (p≦0.05)",significantly higher incidence of treatment success
same,patients withdrawing due to adverse events in treatment period,[3]; 3 mg group (2/37),5%
same,patients withdrawing due to adverse events in treatment period,[3]; 6 mg group (1/36),3%
same,"bone formation and resorption (serum bone alkaline phosphatase, serum amino terminal telopeptides)",[3]; all treatment groups,do not appear to be altered
same,"changes in urinalysis, chemistry, or hematology measures (incl. liver function tests, triglycerides, total cholesterol, HDL cholesterol)",[3]; all treatment groups,None of the treatment groups show any consistent clinically significant changes
same,"ligament calcification, osteophyte formation, or changes in bone density",[3]; all treatment groups,None of the treatment groups show any clinically significant
same,"incidence of ocular, auditory, or thyroid problems",patients,no statistically significant between-group differences
same,Atrophy of skin,patients (psoriasis),0 (0.0) number (%) of patients
same,Hyperesthesia,patients (psoriasis),0 (0.0) number (%) of patients
same,Paresthesia,patients (psoriasis),7 (2.0) number (%) of patients
same,joint disorder during treatment period,"[4]; 2.8 mg, n=11",27%
same,arthralgia during treatment period,"[4]; 2.8 mg, n=11",9%
same,myalgia during treatment period,"[4]; 2.8 mg, n=11",0%
same,asthenia during treatment period,"[4]; 2.8 mg, n=11",0%
same,dry skin during treatment period,"[4]; 2.8 mg, n=11",18%
same,headache during treatment period,"[4]; 2.8 mg, n=11",9%
same,cheilitis during treatment period,"[4]; 2.8 mg, n=11",64%
same,emotional lability (all cases mild),[4]; 3 mg group (1 patient),3%
same,depression,"[4]; 3 mg group (3 patients: 2 mild, 1 severe), placebo 2%",8%
same,joint disorder during treatment period,"[4]; 3 mg, n=37",14%
same,arthralgia during treatment period,"[4]; 3 mg, n=37",8%
same,myalgia during treatment period,"[4]; 3 mg, n=37",16%
same,asthenia during treatment period,"[4]; 3 mg, n=37",19%
same,dry skin during treatment period,"[4]; 3 mg, n=37",35%
same,headache during treatment period,"[4]; 3 mg, n=37",19%
same,cheilitis during treatment period,"[4]; 3 mg, n=37",78%
same,emotional lability (all cases mild),[4]; 6 mg group (5 patients),14%
same,joint disorder during treatment period,"[4]; 6 mg, n=36",19%
same,arthralgia during treatment period,"[4]; 6 mg, n=36",28%
same,myalgia during treatment period,"[4]; 6 mg, n=36",25%
same,asthenia during treatment period,"[4]; 6 mg, n=36",19%
same,dry skin during treatment period,"[4]; 6 mg, n=36",50%
same,headache during treatment period,"[4]; 6 mg, n=36",36%
same,cheilitis during treatment period,"[4]; 6 mg, n=36",94%
same,severe dry skin,[4]; all groups,No patient has severe dry skin
same,"changes in urinalysis, chemistry, or hematology measures (incl. liver function tests, triglycerides, total cholesterol, HDL cholesterol)",[4]; [6],no consistent dose-related clinically significant changes
same,"ligament calcification, osteophyte formation, changes in serum bone alkaline phosphatase, serum amino terminal telopeptides, bone density",[4]; [6],not associated with any clinically significant
same,Conjunctivitis,patients (acne),0 (0.0) number (%) of patients
same,Irritation of eyes,patients (acne),0 (0.0) number (%) of patients
CC1(C)CCSc2ccc(C#Cc3ccc(C(=O)O)cn3)cc21 [tazarotenic acid],effect of high-fat meal on bioavailability or pharmacokinetics of tazarotenic acid,"[5]; 6.3 mg oral tazarotene, single and multiple dose",does not substantially affect
same,average ratio of Cmax values (test/reference),"[5]; Day 0, 6.3 mg oral tazarotene after high fat breakfast vs 8-10 hour fast",1.00
same,activation of RXR retinoid receptors,RXR retinoid receptors,does not activate
